Test results: PubChem BioAssay (NCI)
Values joined by “and” are separate entries in the source; they are usually repeats but may differ in a detail not shown here. Equal entries are not always repeated.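 Cells were grown in 96-well plates and exposed to each compound for 48 hours at five concentrations; endpoints were interpolated linearly between bracketing concentrations, or set to the highest concentration if not reached. GI50 marks 50% less growth. TGI marks complete inhibition of growth.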

Key:
Test in all cases: NCI anticancer screen, dose series, 48 h
HCC-2998 colon = tested on: HCC-2998 colon
HCT-15 colon = tested on: HCT-15 colon
CAKI-1 renal = tested on: CAKI-1 renal
SNB-78 CNS = tested on: SNB-78 CNS
U251 CNS = tested on: U251 CNS
SR leukemia = tested on: SR leukemia
A498 renal = tested on: A498 renal
LOX IMVI melanoma = tested on: LOX IMVI melanoma
COLO 205 colon = tested on: COLO 205 colon
M19-MEL melanoma = tested on: M19-MEL melanoma

Structure (SMILES) | TGI (HCC-2998 colon) | TGI (HCT-15 colon) | TGI (CAKI-1 renal) | TGI (SNB-78 CNS) | TGI (U251 CNS) | TGI (SR leukemia) | TGI (A498 renal) | TGI (LOX IMVI melanoma) | TGI (COLO 205 colon) | TGI (M19-MEL melanoma) | GI50 (HCC-2998 colon) | GI50 (HCT-15 colon) | GI50 (CAKI-1 renal) | GI50 (U251 CNS) | GI50 (SR leukemia) | GI50 (A498 renal) | GI50 (LOX IMVI melanoma) | GI50 (COLO 205 colon)
COc1ccc2c(c1)CCc1c-2n[nH]c1-c1[nH]nc2c1CCc1cc(OC)ccc1-2 | > 100 µM | > 100 µM | 92.7 µM | > 100 µM | > 100 µM | > 100 µM | > 100 µM | > 100 µM | > 100 µM | > 100 µM |  |  |  |  |  |  |  | 
COc1cc(/C=N/N=C(\N)NO)c([N+](=O)[O-])cc1OC | > 100 µM | > 100 µM | 76.2 µM | > 100 µM | > 100 µM | > 100 µM | > 100 µM | 83.5 µM | > 100 µM | > 100 µM |  |  |  |  |  |  |  | 
CCC1=C(CC2NCCc3ccccc32)CC2c3cc(OC)c(OC)cc3CCN2C1 (stereo not drawn) | 15.5 µM and 10.5 µM | 30.8 µM and 20.4 µM | 15.2 µM | 6.77 µM | 16.4 µM and 2.77 µM | 8.77 µM and 3.89 µM | 19.6 µM and 5.8 µM | 15.5 µM and 5.68 µM | 4.13 µM and 0.547 µM | 29.5 µM | 3.9 µM | 5.17 µM | 3.28 µM | 4.8 µM | 2860 nM | 4.25 µM | 4.4 µM | 1810 nM and 199 nM
O/N=C/c1ccc(O)c(O)c1 | > 100 µM | > 100 µM | > 100 µM | > 100 µM | > 100 µM | > 100 µM | > 100 µM | > 100 µM | > 100 µM | > 100 µM |  |  |  |  |  |  |  | 
O=C[C@@H](CO)O[C@H](C=O)n1cnc2c(=O)[nH]cnc21 | 1200 µM | 417 µM | 1590 µM | 2170 µM | 2500 µM | 1210 µM | 2150 µM | 534 µM | 992 µM | 1540 µM |  |  |  |  |  |  |  | 
C[C@H]1C=C2C(=O)O[C@H]3CC[C@@H](C1)[C@@]23O | 26.8 µM | 14.6 µM | 14.8 µM | 9.94 µM | 19.5 µM | > 100 µM | 22.5 µM | 10.3 µM | 12.5 µM | 15.1 µM |  |  |  |  |  |  |  | 
CCOC(=O)CN1C(=O)c2cc([N+](=O)[O-])cc3cc([N+](=O)[O-])cc(c23)C1=O | > 100 µM | > 100 µM | > 100 µM | > 97.1 µM | > 100 µM | 30.7 µM | > 100 µM | > 100 µM | > 100 µM | > 100 µM |  |  |  |  |  |  |  | 
CC(=O)Oc1ccc2c(c1)C(=O)c1nc(C)c(C)nc1C2=O | > 100 µM | > 100 µM | > 100 µM | > 100 µM | > 100 µM | > 89 µM | > 91.7 µM | > 100 µM | > 100 µM | 9.42 µM |  |  |  |  |  |  |  | 
